Laboratory results from BindingDB's records for patent US20240132503 (Ocumension Therapeutics (Suzhou) Co., 2024).

Target: Tyrosine-protein kinase SYK (Homo sapiens, UniProt P43405)
Experiment: In Vitro Evaluation of Inhibitory Activity Against Syk Protein Kinase
Procedure: Test Procedure and Method:(a) Compound dilution and microplate injection1) Compound powder was weighed and dissolved in a specific amount of DMSO at an initial concentration of 10 mM.2) The compound was diluted to have a concentration of 0.74 mM, POD18 was used for microplate injection by 135 nL per well, an initial concentration of the compound was 10 μM, and 11 concentrations and 3-fold descending serial dilution were carried out.(b) Reaction stage of enzyme and substrate1) Preparation of test buffer dilution: 5×HTRF buffer in the kit was diluted to 1×HTRF buffer, and a specified amount of DTT and MgCl2 solution were added for later use.2) A Syk enzyme reaction solution was prepared with 1×HTRF buffer, so that a final reaction concentration of Syk kinase was 0.0156 ng/μL.3) A TK-Substrate-biotin/ATP mixture was prepared, so that a final substrate concentration was controlled to be 0.2 μM. An ATP concentration was controlled to be 2 μM.4) A mutidorp injector was used to add the sample, 5 μL of Syk enzyme solution and TK-Substrate-biotin/ATP mixture were added to each well, and incubated at 23° C. for 1 hour.

c1cc(N2CCOCC2)ccc1NC1=Nc2ccc(-c3cn[nH]c3)cc2N2CCN=C12 [US20240132503, Compound Crystal form A Compound Formula 1]
IC50: 0.025 µM
